Converted amounts (≈) assume the structure as drawn. Like-named read-outs stand apart in the source and are kept apart here.
Columns and labels:
Assay type in all cases: physicochemical
[1] = MF solubility in cyclodextrin solutions; details: 3 mM citrate buffer pH 4.5
Description: Compositions of mometasone furoate 6 mg/ml were prepared in duplicate with a 0.05, […], and 0.2 M of four different cyclodextrins: an unsubstituted gamma cyclodextrin, a sulfobutyl ether (SBE) beta cyclodextrin (Captisol), and two substituted SBE gamma cyclodextrins. Only 0.05 and 0.1M cyclodextrins were evaluated for the unsubstituted gamma cyclodextrin. All compositions were prepared in a 3 mM citrate buffer at a pH of 4.5. The compositions were placed on a roller mixer (Stuart Scientific SRT233 rpm rise/fall 16 mm) protected from light and mixed for about three days. After the three day equilibration, the compositions were filtered using a 0.22 micrometer PVDF syringe filter and analyzed by HPLC.

[2] = Microemulsion equilibrium solubility determination of mometasone furoate; details: POLOXAMER 407-based microemulsion, aqueous with cosolvent or surfactant or cyclodextrin, thermodynamic from solid, microemulsion: ethyl laurate 5% w/w, POLOXAMER 407 10% w/w; read-out: MF Solubility
[3] = Micellar solubility determination of MF in 10% surfactant solutions in water; details: for solubility: 10% w/w excipient solution in water, aqueous with cosolvent or surfactant or cyclodextrin, thermodynamic from solid
Description: To determine the solubility of MF in various solutions, various MF solutions are prepared by measuring each excipient into a beaker at a 10% w/w concentration. If needed, the excipients are melted using a water bath maintained at 65° C. for approximately 30 minutes. The composition is q.s. to 50 g with water and mixed with an overhead/lightening mixer. Approximately 50-60 mg of anhydrous mometasone furoate anhydrous is added into each mixture. The solutions are mixed at a low speed on a shaker (Eberbacher) for about 48 to about 72 hours. Approximately 20 mL of each suspension are removed and centrifuged at 1200 rpm for 12 minutes. Approximately 5 mL of the supernatant is filtered using a 0.22 μm syringe filter. A 1 mL sample is taken from each filtered sample, diluted, and assayed using an HPLC.

[4] = Microemulsion equilibrium solubility determination of mometasone furoate; details: for concentration of mometasone furoate achieved: 5% MIGLYOL; for solubility at 72 h: SOLUTOL HS-15-based microemulsion, aqueous with cosolvent or surfactant or cyclodextrin, thermodynamic from solid
Description: The equilibrium solubility of mometasone furoate is determined in SOLUTOL® HS-15-based microemulsion composition composed of 20% of SOLUTOL® HS-15 with varying amounts of different oils (FIG. 2, Table 2). An excess amount of the drug is added in the solutions after water had been added. The vials is shaken over a 72 hour period. The solutions is centrifuged and filtered at various time intervals prior to analysis of the samples by HPLC. The drug solubility ranged from 300 mcg/ml to 600 mcg/g. Alternative oils are also explored (Table 3).
The concentration was ˜519 mcg/ml in a similar composition where PBS was replaced with water. To achieve a concentration of exactly 500 mcg/ml, roughly 5 mg of the drug was weighed and added to a mixture of 2 g of SOLUTOL® HS-15 and 0.5 g of MIGLYOL® 812, that was previously mixed using a magnetic stir bar. After the drug was dissolved in the pre-concentrate, 7.5 g of distilled water was added to the above mix to formulate a microemulsion of mometasone furoate.

[5] = Effect of additives on MF solubility in 0.2 M Captisol solution; details: aqueous with cosolvent or surfactant or cyclodextrin
Description: A stock solution of 0.2 M Captisol (SBE beta cyclodextrin) was prepared. Table 5 and FIG. 4 list the effect of various additives on the MF solubility of this solution: […]

[6] = MF solubility in cyclodextrin solutions; details: 3 mM citrate buffer pH 4.5; remark: listed apart in the source
[7] = anhydrous MF, 10% w/w CREMOPHOR RH 40 (polyoxyl 40 hydrogenated castor oil) in water
[8] = anhydrous MF, 10% w/w SOLUTOL HS 15 (polyethylene glycol 660-12 hydroxystearate) in water
[9] = anhydrous MF, 10% w/w TWEEN 80 (polysorbate 80) in water

SMILES: C[C@@H]1C[C@H]2[C@@H]3CCC4=CC(=O)C=C[C@]4(C)[C@@]3(Cl)[C@@H](O)C[C@]2(C)[C@@]1(OC(=O)c1ccco1)C(=O)CCl [MF, mometasone furoate]
- Concentration of MF in solutions with cyclodextrins ([1]; Captisol (SBE beta-CD) 0.05M, three day equilibration): 84 µg/mL
- Concentration of MF in solutions with cyclodextrins ([1]; Captisol (SBE beta-CD) 0.2M): 261 µg/mL
- Concentration of MF in solutions with cyclodextrins ([1]; SBE(6.1) gamma-CD 0.05M): 262 µg/mL
- Concentration of MF in solutions with cyclodextrins ([1]; SBE(6.1) gamma-CD 0.2M): 1840 µg/mL
- Concentration of MF in solutions with cyclodextrins ([1]; SBE(6.2) gamma-CD 0.05M): 250 µg/mL
- Concentration of MF in solutions with cyclodextrins ([1]; SBE(6.2) gamma-CD 0.2M): 1940 µg/mL
- Concentration of MF in solutions with cyclodextrins ([1]; unsubstituted gamma-CD 0.05M): 117 µg/mL
- Concentration of MF in solutions with cyclodextrins ([1]; unsubstituted gamma-CD 0.1M): 249 µg/mL
- solubility at 72 h [2]: 90 µg/mL (≈ 173 µM)
- solubility ([3]; 10% Vitamin E TPGS in water): ~500 µg/mL (≈ 959 µM)
- solubility [3, 7]: 180 to 200 µg/mL (≈ 345 to 384 µM)
- solubility ([3]; anhydrous MF, 10% w/w LUTROL F127 (poloxamer 407) in water): 27 µg/mL (≈ 51.8 µM)
- solubility [3, 8]: 180 to 200 µg/mL (≈ 345 to 384 µM)
- solubility [3, 9]: 180 to 200 µg/mL (≈ 345 to 384 µM)
- solubility ([3]; anhydrous MF, 10% w/w Vitamin E TPGS (d-α tocopheryl PEG 1000 succinate) in water): 499 µg/mL (≈ 957 µM)
- solubility ([3]; solutions with 10% polyoxamers): < 30 µg/mL
- solubility ([3]; solutions with 10% polyvinylpyrrolidones): < 30 µg/mL
- MF Solubility [3, 7]: 189 µg/mL
- MF Solubility [3, 8]: 184 µg/mL
- MF Solubility [3, 9]: 199 µg/mL
- concentration of mometasone furoate achieved ([4]; 20% w/w SOLUTOL HS-15, 75% phosphate buffer system (PBS)): 538 µg/mL
- concentration of mometasone furoate achieved ([4]; 20% w/w SOLUTOL HS-15, PBS replaced with water): ~519 µg/mL
- solubility at 72 h ([4]; 20% SOLUTOL HS-15 microemulsions with varying amounts of different oils, 72 hour shaking, read-out: drug solubility (equilibrium)): 300 to 600 µg/mL (≈ 575 to 1150 µM)
- solubility at 72 h ([4]; microemulsion Example 1: MIGLYOL 812 4% w/w, SOLUTOL HS 15 20% w/w, read-out: Solubilized MF): 502 µg/mL (≈ 963 µM)
- solubility at 72 h ([4]; microemulsion Example 2: MIGLYOL 812 5% w/w, SOLUTOL HS 15 20% w/w, read-out: Solubilized MF): 538 µg/mL (≈ 1030 µM)
- solubility at 72 h ([4]; microemulsion Example 4: MIGLYOL 840 4% w/w, SOLUTOL HS 15 20% w/w, read-out: Solubilized MF): 540 µg/mL (≈ 1040 µM)
- solubility at 72 h ([4]; microemulsion Example 5: CAPRYOL 3% w/w, SOLUTOL HS 15 20% w/w, read-out: Solubilized MF): 422 µg/mL (≈ 809 µM)
- solubility at 72 h ([4]; microemulsion Example 6: corn oil 3% w/w, SOLUTOL HS 15 20% w/w, read-out: Solubilized MF): 408 µg/mL (≈ 782 µM)
- solubility at 72 h ([4]; microemulsion Example 7: oleic acid 2% w/w, SOLUTOL HS 15 20% w/w, read-out: Solubilized MF): 323 µg/mL (≈ 619 µM)
- solubility at 72 h ([4]; microemulsion Example 8: soybean oil 1% w/w, SOLUTOL HS 15 20% w/w, read-out: Solubilized MF): 375 µg/mL (≈ 719 µM)
- solubility at 72 h ([4]; microemulsion Example 9: soybean oil 2% w/w, SOLUTOL HS 15 20% w/w, read-out: Solubilized MF): 397 µg/mL (≈ 761 µM)
- solubility at 72 h ([4]; microemulsion: ethyl laurate 5% w/w, polyethylene glycol 660-12 hydroxystearate 20% w/w, read-out: MF Solubility): 540 µg/mL (≈ 1040 µM)
- drug concentration determined by HPLC ([4]; about 5 mg drug dissolved in 2 g SOLUTOL HS-15 + 0.5 g MIGLYOL 812, then 7.5 g distilled water, target 500 mcg/ml): 500 µg/mL
- solubility ([5]; 0.2 M Captisol + 0.01% w/v Polysorbate 80): 235 µg/mL
- solubility ([5]; 0.2 M Captisol + 0.02% w/v Benzalkonium Chloride): 243 µg/mL
- solubility ([5]; 0.2 M Captisol + 0.1% w/v HPMC): 258 µg/mL
- solubility ([5]; 0.2 M Captisol + 0.1% w/v Na-CMC): 242 µg/mL
- solubility ([5]; 0.2 M Captisol + 0.1% w/v PVP-30): 290 µg/mL
- solubility ([5]; 0.2 M Captisol + 1% v/v EtOH): 236 µg/mL
- solubility ([5]; 0.2 M Captisol + 2.1% w/v Glycerin): 220 µg/mL
- solubility ([5]; 0.2 M Captisol + 10% v/v EtOH): 121 µg/mL
- solubility ([5]; 0.2 M Captisol + 10% w/v Propylene Glycol): 107 µg/mL
- Concentration of MF in solutions with cyclodextrins ([6]; Captisol (SBE beta-CD) 0.1M): 152 µg/mL
- Concentration of MF in solutions with cyclodextrins ([6]; SBE(6.1) gamma-CD 0.1M): 626 µg/mL
- Concentration of MF in solutions with cyclodextrins ([6]; SBE(6.2) gamma-CD 0.1M): 569 µg/mL

From patent US20120022032A1, “CORTICOSTEROID COMPOSITIONS AND METHODS OF TREATMENTS THEREOF” (priority 2008, published 2012)
